This note sets out measurements from publication PMC11555526, “Development of 2-Aminoadenine-Based Proteolysis-Targeting Chimeras (PROTACs) as Novel Potent Degraders of Monopolar Spindle 1 and Aurora Kinases” (ACS Pharmacology & Translational Science, 2024).

What all share (format): cell-based
The target in assay [1] is T1, AURKB (MV4-11^AURKB-HiBiT cells) (Homo sapiens, UniProt Q96GD4).
T1 construct: expressed in transfected cells; host or cells: MV4-11, lentiviral transduction (pRRL-PGK vector)
T1 sequence (Q96GD4 1-345 isoform Q96GD4-5): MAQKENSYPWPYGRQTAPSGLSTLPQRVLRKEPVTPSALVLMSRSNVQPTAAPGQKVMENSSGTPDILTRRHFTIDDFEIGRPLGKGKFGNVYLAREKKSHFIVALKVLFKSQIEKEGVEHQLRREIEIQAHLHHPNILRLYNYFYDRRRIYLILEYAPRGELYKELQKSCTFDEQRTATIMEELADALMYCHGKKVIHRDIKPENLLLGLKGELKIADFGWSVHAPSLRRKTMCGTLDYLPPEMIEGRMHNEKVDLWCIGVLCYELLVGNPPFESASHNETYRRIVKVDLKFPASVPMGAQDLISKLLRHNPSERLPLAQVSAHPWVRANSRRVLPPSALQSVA
The experiment in a line: HiBiT assay, AURKB degradation. The settings on record: 6 h treatment; for DC50: read-out: DC50 (half-maximal degradation concentration) AURKB. Put shortly:
(§1)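 MV4-11 lines stably expressing HiBiT-tagged AURKA, AURKB or TTK (lentiviral) were treated with serial compound dilutions for the indicated times. Remaining tagged protein was read by lytic HiBiT luminescence, and DC50 was fitted with a four-parameter dose–response equation using concentrations showing sigmoidal behaviour.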
(HiBiT is a short tag that completes a luciferase, so light tracks the accessible tagged protein.)

In a further assay the target is T2, TTK (Homo sapiens, UniProt P33981).
T2 sequence (P33981 1-857): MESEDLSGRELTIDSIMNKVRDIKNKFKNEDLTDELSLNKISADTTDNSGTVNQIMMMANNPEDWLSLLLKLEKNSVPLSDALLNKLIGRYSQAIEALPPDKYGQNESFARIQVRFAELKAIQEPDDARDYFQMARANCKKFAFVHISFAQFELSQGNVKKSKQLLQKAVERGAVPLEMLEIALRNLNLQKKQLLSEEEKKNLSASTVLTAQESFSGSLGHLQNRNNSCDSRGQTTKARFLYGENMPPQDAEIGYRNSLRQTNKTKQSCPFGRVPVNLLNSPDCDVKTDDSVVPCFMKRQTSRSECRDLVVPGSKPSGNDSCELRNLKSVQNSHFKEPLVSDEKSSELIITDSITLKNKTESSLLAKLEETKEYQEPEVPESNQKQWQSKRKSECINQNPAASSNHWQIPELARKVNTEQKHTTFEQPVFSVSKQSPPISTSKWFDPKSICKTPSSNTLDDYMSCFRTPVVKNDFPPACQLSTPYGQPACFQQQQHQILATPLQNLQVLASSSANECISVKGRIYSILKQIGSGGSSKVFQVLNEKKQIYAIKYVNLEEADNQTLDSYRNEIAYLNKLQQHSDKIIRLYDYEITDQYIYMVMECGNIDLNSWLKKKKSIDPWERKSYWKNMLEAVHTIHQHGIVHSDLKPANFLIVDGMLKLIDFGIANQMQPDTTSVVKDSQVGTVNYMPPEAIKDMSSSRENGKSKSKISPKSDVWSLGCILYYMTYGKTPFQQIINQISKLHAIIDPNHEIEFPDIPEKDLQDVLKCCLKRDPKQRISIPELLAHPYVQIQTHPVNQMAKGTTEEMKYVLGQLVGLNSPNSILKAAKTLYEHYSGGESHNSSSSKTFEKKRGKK
The experiment in a line: Immunoblot of TTK in CALU1 cells. Details: endogenous in cells. The settings on record: 6 h. The procedure: The cells were treated with compounds or vehicle for indicated time points and lysed in RIPA lysis buffer (50 mM HEPES pH 7.9, 140 mM NaCl, 1 mM EDTA, 1% Triton X-100, 0.1% SDS, 0.1% sodium deoxycholate) containing protease and phosphatase inhibitors (Sigma) for 20 min at 4 °C. Cell lysates were cleared by centrifugation, and protein concentration was determined with bicinchoninic acid assay. Equal amounts of protein per sample were separated by Bis-Tris-PAGE and transferred to PVDF membranes (Millipore). The membranes were blocked with 5% (w/v) nonfat dry milk in TBS-T [20 mM Tris–HCl, pH 7.5, 150 mM NaCl, 0.1% (v/v) Tween-20] for 1 h at room temperature and incubated with primary antibody at 4 °C overnight. Visualization was carried out using horseradish peroxidase (HRP)-labeled secondary antibodies and detected using a chemiluminescent HRP substrate (Millipore) in LAS3000 or LAS4000 mini (Fujifilm). Vinculin, GAPDH, or B-actin were used as a loading control. The loading control was probed along with the target antibody by cutting the membrane. For targets with similar molecular weights, the samples were run in duplicate and probed with their respective loading controls, although only one control was shown in the figure for all targets. The signal was quantified using ImageJ or Image Studio Lite against the corresponding loading controls. Antibodies used in this study were as follows: Aurora A/AIK (Cell Signaling Technology, 3092), Aurora B (Bethyl Laboratories, A300–431A), TTK (Santa Cruz Biotechnology, sc-56968), GAPDH (Cell Signaling Technology, 2118), B-Actin (Sigma, A5441), and Vinculin (Sigma, V9131). […]
Figure S2: Cellular degradation studies of SF1-based compounds. […]
(E), 18 (F), and 14 or 20 (G) for 6 h and compared with vehicle treated cells. (H-J) Immunoblots of TTK and AURKB. CALU1 cells were treated with indicated concentration of 14 or 20 (H), 44 or 47 (I), and 46 (J) for 6 h and compared with DMSO treated cells. All HiBiT data are represented as a mean ±s.d. from n=2 replicates. […]
(In general: In western blotting, separated proteins are transferred to a membrane and probed.)

Assay [2] concerns the target T3, AURKA (MV4-11^AURKA-HiBiT cells) (Homo sapiens, UniProt O14965).
T3 construct: expressed in transfected cells; host or cells: MV4-11, lentiviral transduction
T3 sequence (O14965 1-403): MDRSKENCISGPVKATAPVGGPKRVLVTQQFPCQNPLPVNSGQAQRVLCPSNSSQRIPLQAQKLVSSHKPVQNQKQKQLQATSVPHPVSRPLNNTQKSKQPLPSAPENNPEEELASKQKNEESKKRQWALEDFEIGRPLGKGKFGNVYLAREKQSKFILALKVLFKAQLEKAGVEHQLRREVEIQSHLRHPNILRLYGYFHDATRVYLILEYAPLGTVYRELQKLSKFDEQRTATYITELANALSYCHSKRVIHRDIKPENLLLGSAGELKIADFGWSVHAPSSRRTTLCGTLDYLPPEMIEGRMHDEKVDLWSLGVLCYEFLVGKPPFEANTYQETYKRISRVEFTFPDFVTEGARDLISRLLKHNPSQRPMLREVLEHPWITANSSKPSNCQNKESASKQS
In words: HiBiT assay, AURKA degradation. The settings on record: for Dmax (maximal degradation) AURKA / DC50: 6 h treatment, MV4-11^AURKA-HiBiT cells; for DC50: read-out: DC50 (half-maximal degradation concentration) AURKA. The gist of the method: as §1

Several values for one entry are separate records, joined by “and”; a condition that tells them apart may be missing. Equal values may be shown once.

Take `CC(C)S(=O)(=O)c1ccccc1Nc1nc(Nc2ccc(N3CCN(C(=O)CCCC(=O)Nc4cccc5c4C(=O)N(C4CCC(=O)NC4=O)C5=O)CC3)cc2)nc2[nH]cnc12` (stereo not shown) [Compound 14]: in assay [1], the “Dmax (maximal degradation) AURKB” value is recorded as 38.80% and the DC50 stood at 168 nM. Also, at TTK (10 µM), the “relative TTK level (immunoblot quantification, DMSO = 1.00)” value (“relative TTK level” below) is 1.00. Also, in assay [2], the “Dmax (maximal degradation) AURKA” value was 50.10% and the DC50 is 46 nM.
For the molecule `CC(C)S(=O)(=O)c1ccccc1Nc1nc(Nc2ccc(N3CCN(C(=O)CNC(=O)CCCC(=O)Nc4cccc5c4C(=O)N(C4CCC(=O)NC4=O)C5=O)CC3)cc2)nc2[nH]cnc12` (stereo not shown) [Compound 20], in assay [1], the “Dmax (maximal degradation) AURKB” value came to 29.40% and the DC50 is 248 nM. Moreover, the “relative TTK level” value at TTK (0.1 µM) worked out at 0.87. Also, in assay [2], the “Dmax (maximal degradation) AURKA” value was 71% and 70.70%; the DC50 is 68 nM and 67.7 nM. In assay [2] (HiBiT, 6 h), the “efficiency of AURKA degradation (Dmax) relative to AURKB and TTK” value is 1.5–2.4 times; the “selectivity of AURKA degradation (DC50) relative to AURKB and TTK” value is reported as 3.7–4.2 fold.
On to `Cc1ncsc1-c1ccc(CNC(=O)[C@@H]2C[C@@H](O)CN2C(=O)[C@@H](NC(=O)COCCOCC(=O)N2CCN(c3ccc(Nc4nc(Nc5ccccc5S(=O)(=O)C(C)C)c5nc[nH]c5n4)cc3)CC2)C(C)(C)C)cc1` [Compound 49], for which, in assay [1], the “Dmax (maximal degradation) AURKB” value is recorded as 32.17% and the DC50 was 3690 nM. Besides, in assay [2], the “Dmax (maximal degradation) AURKA” value was determined as 38.00% and the DC50 is 814 nM.
With `Cc1ncsc1-c1ccc(CNC(=O)[C@@H]2C[C@@H](O)CN2C(=O)[C@@H](NC(=O)CCCC(=O)N2CCN(c3ccc(Nc4nc(Nc5ccccc5S(=O)(=O)C(C)C)c5nc[nH]c5n4)cc3)CC2)C(C)(C)C)cc1` [Compound 44], in assay [1], the “DC50 (half-maximal degradation concentration) AURKB” value was “– (compounds with degradation less than 25% were not calculated and reported as “–”)”; the “Dmax (maximal degradation) AURKB” value was 20.30%. In addition, on TTK (0.01 µM), the “relative TTK level” value worked out at 0.79. The “relative TTK level” value on TTK (0.1 µM) is listed as 0.79. In assay [2], the “Dmax (maximal degradation) AURKA” value was determined as 35.20% and the DC50 was found to be 1700 nM.
